Reference: patent US12145947B2, “Pyrimidine based modulators and uses thereof” (Quanta Therapeutics, Inc., priority 2022, dated 2024)

What was measured:
[1] = molecular target: T1, GST-tagged KRAS-G12D (2-169) (Homo sapiens, UniProt P01116, G12D); assay: Nucleotide exchange assay (NEA), SOS-mediated, HTRF, KRAS G12D; type: biochemical; settings: IC50 extracted at 30 min
T1 construct: GST-tagged KRAS-G12D (2-169, Reaction Biology, MSC-11-539); purchased Reaction Biology MSC-11-539 (KRAS G12D); MSC-11-502 (SOS1cat)
T1 sequence (P01116 2-169 isoform P01116-2 G12D): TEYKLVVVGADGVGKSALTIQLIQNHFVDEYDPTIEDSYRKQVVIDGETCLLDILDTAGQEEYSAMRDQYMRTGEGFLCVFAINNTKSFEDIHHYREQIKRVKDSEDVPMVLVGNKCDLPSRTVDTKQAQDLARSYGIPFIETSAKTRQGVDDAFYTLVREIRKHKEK
Method in brief: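 GST-KRAS-G12D (2-169, 5 nM final) with Tb-anti-GST donor was preincubated with compound 1 h at RT (pH 7.3 HEPES buffer, MgCl2, DTT), then SOScat (564-1049, 20 nM) and GTP-DY-647P1 (150 nM) were added. HTRF was read at RT; % inhibition vs DMSO/no-SOS blank, 4-parameter IC50 taken at 30 min.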

[2] = tested on: GP2D cells (KRAS G12D), phospho-ERK; assay: pERK In Cell Western (ICW) assay, GP2D cells; type: cell-based; settings: Table 4, 3 hours
Description: pERK ICW is a high throughput screening assay to evaluate the cellular potency of mutant KRAS small molecule inhibitors. KRAS mutant cell lines AGS and GP2D (KRAS^G12D) were purchased from ATCC and maintained respectively in RPMI and DMEM medium supplemented with 10% fetal bovine serum and Penicillin/Streptomycin.
Cells grown in exponential phase were trypsinized, resuspended in fresh media, and viable cells were counted using a cell counter with Trypan Blue (BioRad TC20). Cells were seeded into 384-well plate (Greiner 781091) at density of 5,000 cells/well for AGS and 10,000 cells/well for GP2D and allowed to grow overnight in a 37° C. CO2 incubator. The next day, compounds were dispensed into wells with a ½ log, 10-point serial dilution and top concentration of […] using Tecan D300e dispenser and incubated for 3 hours in a 37° C. CO2 incubator. Cells were then fixed with paraformaldehyde (Electron Microscopy Sciences, 15710, 4% final concentration) for 30 min, permeabilized with wash buffer (1×PBS+0.1% Triton X-100) for 30 min and blocked with Odyssey blocking buffer (Li—COR 927-70001) for 1 hour, all at room temperature (RT). Phospho-ERK antibody (CST 4370L) was diluted 1:500 in Odyssey blocking+0.2% Tween 20 and incubated with cells overnight at 4° C. The next day, plates were washed 5× with wash buffer, incubated with IRDye 800 CW, Goat anti-Rabbit secondary antibody (Li—COR 926-32211, 1:500) and DRAQ5 (CST 4084L, 1:5,000) diluted in Odyssey blocking+0.2% Tween 20 for 1 hour, washed 5×, and imaged on an Odyssey CLx imaging system.
For data analysis, signal intensities from 800 (phosphor-ERK) and 700 (DRAQ5) channels were extracted, and phospho-ERK signals were normalized to DRAQ5 signals for each well and percent of DMSO control values were computed. Data were then imported into Graphpad Prism to compute half-maximal inhibitory concentrations (IC50) using a 4-parameter variable slope model. Z-factor for each plate was computed from signals derived from wells treated with either DMSO or […] of Trametinib. AGS pERK ICW (Method B) IC50 (uM) values of selected compounds are depicted in Table 2 with compounds having a value 0.001 uM to 0.01 uM as ++++; >0.01 uM to 0.1 uM as +++; >0.1 uM to 1 uM as ++; 1 uM to 10 uM as + and >10 uM as NA.

With `N#Cc1c(N2CC3COCC(C2)N3)nc(OC[C@]23CCCN2C[C@@H](F)C3)nc1N1CC2(CCc3sc(N)c(C#N)c32)C1` [Compound 43, 2-amino-1′-[5-cyano-2-[[(2S,8R)-2-fluoro-1,2,3,5,6,7-hexahydropyrrolizin-8-yl]methoxy]-6-(3-oxa-7,9-diazabicyclo[3.3.1]nonan-7-yl)pyrimidin-4-yl]spiro[5,6-dihydrocyclopenta[b]thiophene-4,3′-azetidine]-3-carbonitrile] the IC50 ([1]; Table 4) was 10 to 100 nM and the IC50 [2] was 100 to 1000 nM.

For `CO[C@H]1CN(CC2(COc3nc(N4C[C@H]5CC[C@@H](C4)N5)c(C#N)c(N4CC5(CCc6sc(N)c(C#N)c65)C4)n3)CC2)C[C@@H]1F` [Compound 81, 2-amino-1′-[5-cyano-6-[(1R,5S)-3,8-diazabicyclo[3.2.1]octan-3-yl]-2-[[1-[[(3S,4S)-3-fluoro-4-methoxy-pyrrolidin-1-yl]methyl]cyclopropyl]methoxy]pyrimidin-4-yl]spiro[5,6-dihydrocyclopenta[b]thiophene-4,3′-azetidine]-3-carbonitrile], the IC50 ([1]; Table 4) was < 10 nM and the IC50 [2] was 10 to 100 nM.

`CN(C)C(=O)c1nn2c(c1Cl)CN(c1nc(OC[C@@]34CCCN3C[C@H](F)C4)nc(N3CC4(CCCc5sc(N)c(C#N)c54)C3)c1C#N)CCC2` [Compound 3, 5-[6-(2-amino-3-cyano-spiro[6,7-dihydro-5H-benzothiophene-4,3′-azetidine]-1′-yl)-5-cyano-2-[[(2R,8S)-2-fluoro-1,2,3,5,6,7-hexahydropyrrolizin-8-yl]methoxy]pyrimidin-4-yl]-3-chloro-N,N-dimethyl-4,6,7,8-tetrahydropyrazolo[1,5-a][1,4]diazepine-2-carboxamide] was tested, and the IC50 ([1]; Table 2) was < 10 nM, the IC50 ([1]; Table 4) was < 10 nM and the IC50 [2] was 1 to 10 nM.

`N#Cc1c(N2C[C@H]3CC[C@@H](C2)N3)nc(OCC2(CN3CCOCC3)CC2)nc1N1CC2(C=CCc3sc(N)c(C#N)c32)C1` [Compound 86, 2-amino-1′-[5-cyano-2-[[1-(morpholinomethyl)cyclopropyl]methoxy]-6-[(1R,5S)-3,8-diazabicyclo[3.2.1]octan-3-yl]pyrimidin-4-yl]spiro[7H-benzothiophene-4,3′-azetidine]-3-carbonitrile] was tested, and the IC50 ([1]; Table 4) was < 10 nM and the IC50 [2] was 1 to 10 nM.

With `N#Cc1c(N2C[C@H]3CC[C@@H](C2)N3)nc(OC[C@@H]2CCN2CC(F)(F)F)nc1N1CC2(CCc3sc(N)c(C#N)c32)C1` [Compound 92, 2-amino-1′-[5-cyano-6-[(1R,5S)-3,8-diazabicyclo[3.2.1]octan-3-yl]-2-[[(2S)-1-(2,2,2-trifluoroethyl)azetidin-2-yl]methoxy]pyrimidin-4-yl]spiro[5,6-dihydrocyclopenta[b]thiophene-4,3′-azetidine]-3-carbonitrile] the IC50 ([1]; Table 4) was 10 to 100 nM and the IC50 [2] was 1000 to 10000 nM.

With `N#Cc1c(N2C[C@H]3CC[C@@H](C2)N3)nc(OCc2ccn[nH]2)nc1N1CC2(CCc3sc(N)c(C#N)c32)C1` [Compound 79, 2-amino-1′-[5-cyano-6-[(1R,5S)-3,8-diazabicyclo[3.2.1]octan-3-yl]-2-(1H-pyrazol-5-ylmethoxy)pyrimidin-4-yl]spiro[5,6-dihydrocyclopenta[b]thiophene-4,3′-azetidine]-3-carbonitrile] the IC50 ([1]; Table 4) was < 10 nM and the IC50 [2] was 10 to 100 nM.

With `N#Cc1c(N2C[C@H]3CC[C@@H](C2)N3)nc(OCC2(CN3CCOCC3)CC2)nc1N1CC2(CSc3sc(N)c(C#N)c32)C1` [Compound 73, 5-amino-1′-[5-cyano-2-[[1-(morpholinomethyl)cyclopropyl]methoxy]-6-[(1R,5S)-3,8-diazabicyclo[3.2.1]octan-3-yl]pyrimidin-4-yl]spiro[2H-thieno[2,3-b]thiophene-3,3′-azetidine]-4-carbonitrile] the IC50 ([1]; Table 4) was < 10 nM and the IC50 [2] was 1 to 10 nM.

Work on `CN(C)CC1(COc2nc(N3C[C@H]4CC[C@@H](C3)N4)c(C#N)c(N3CC4(CCc5sc(N)c(C#N)c54)C3)n2)CC1(F)F` (mixture of isomers) [Compound 74, 2-amino-1′-[5-cyano-6-(3,8-diazabicyclo[3.2.1]octan-3-yl)-2-[[1-[(dimethylamino)methyl]-2,2-difluoro-cyclopropyl]methoxy]pyrimidin-4-yl]spiro[5,6-dihydrocyclopenta[b]thiophene-4,3′-azetidine]-3-carbonitrile] yielded an IC50 ([1]; Table 4) of 10 to 100 nM and an IC50 [2] of 1000 to 10000 nM.

In the case of `CC(=O)c1nn2c(c1Cl)CN(c1nc(OC[C@@]34CCCN3C[C@H](F)C4)nc(N3CC4(CCc5sc(N)c(C#N)c54)C3)c1C#N)CCC2` [Compound 13, 1′-[6-(2-acetyl-3-chloro-4,6,7,8-tetrahydropyrazolo[1,5-a][1,4]diazepin-5-yl)-5-cyano-2-[[(2R,8S)-2-fluoro-1,2,3,5,6,7-hexahydropyrrolizin-8-yl]methoxy]pyrimidin-4-yl]-2-amino-spiro[5,6-dihydrocyclopenta[b]thiophene-4,3′-azetidine]-3-carbonitrile], the IC50 ([1]; Table 4) is reported as < 10 nM and the IC50 [2] is reported as 1 to 10 nM.

`N#Cc1c(N2C[C@H]3CC[C@@H](C2)N3)nc(OCC2(CN3CCOCC3)CC2)nc1N1CC2(C1)SCc1sc(N)c(C#N)c12` [Compound 100, 2-amino-1′-[5-cyano-6-[(1R,5S)-3,8-diazabicyclo[3.2.1]octan-3-yl]-2-[[1-(morpholinomethyl)cyclopropyl]methoxy]pyrimidin-4-yl]spiro[6H-thieno[2,3-c]thiophene-4,3′-azetidine]-3-carbonitrile] was tested, and the IC50 ([1]; Table 4) was < 10 nM and the IC50 [2] was 1 to 10 nM.

`Cc1noc(-c2nn3c(c2Cl)CN(c2nc(OC[C@@]45CCCN4C[C@H](F)C5)nc(N4CC5(CCc6sc(N)c(C#N)c65)C4)c2C#N)CCC3)n1` [Compound 17, 2-amino-1′-[6-[3-chloro-2-(3-methyl-1,2,4-oxadiazol-5-yl)-4,6,7,8-tetrahydropyrazolo[1,5-a][1,4]diazepin-5-yl]-5-cyano-2-[[(2R,8S)-2-fluoro-1,2,3,5,6,7-hexahydropyrrolizin-8-yl]methoxy]pyrimidin-4-yl]spiro[5,6-dihydrocyclopenta[b]thiophene-4,3′-azetidine]-3-carbonitrile] was tested, and the IC50 ([1]; Table 4) was < 10 nM and the IC50 [2] was 10 to 100 nM.

Molecule `N#Cc1c(N2CCCC(C#N)CC2)nc(OC[C@@]23CCCN2C[C@H](F)C3)nc1N1CC2(CCc3sc(N)c(C#N)c32)C1` (stereo partly drawn) [Compound 33, 2-amino-1′-[5-cyano-6-(4-cyanoazepan-1-yl)-2-[[(2R,8S)-2-fluoro-1,2,3,5,6,7-hexahydropyrrolizin-8-yl]methoxy]pyrimidin-4-yl]spiro[5,6-dihydrocyclopenta[b]thiophene-4,3′-azetidine]-3-carbonitrile] has an IC50 ([1]; Table 4) of 10 to 100 nM and an IC50 [2] of 100 to 1000 nM.

For `CN(C)CC1(COc2nc(N3CC4CCC(C3)N4)c(C#N)c(N3CC4(CCc5sc(N)c(C#N)c54)C3)n2)CC1(F)F` (stereo not shown) [Compound 74A, 2-amino-1′-[5-cyano-6-(3,8-diazabicyclo[3.2.1]octan-3-yl)-2-[[(1*)-1-[(dimethylamino)methyl]-2,2-difluoro-cyclopropyl]methoxy]pyrimidin-4-yl]spiro[5,6-dihydrocyclopenta[b]thiophene-4,3′-azetidine]-3-carbonitrile], the IC50 ([1]; Table 4, listed as 74.1) was < 10 nM and the IC50 ([2]; listed as 74.1) was 1 to 10 nM.

`Cn1c(-c2cc3n(n2)CCCN(c2nc(OC[C@@]45CCCN4C[C@H](F)C5)nc(N4CC5(CCc6sc(N)c(C#N)c65)C4)c2C#N)C3)nc2ccccc21` [Compound 29, 2-amino-1′-[5-cyano-6-[2-(1-methylbenzimidazol-2-yl)-4,6,7,8-tetrahydropyrazolo[1,5-a][1,4]diazepin-5-yl]-2-[[(2R,8S)-2-fluoro-1,2,3,5,6,7-hexahydropyrrolizin-8-yl]methoxy]pyrimidin-4-yl]spiro[5,6-dihydrocyclopenta[b]thiophene-4,3′-azetidine]-3-carbonitrile] was tested, and the IC50 ([1]; Table 4) was 10 to 100 nM and the IC50 [2] was 100 to 1000 nM.

`CC1CC2(CN(c3nc(OCC4(CN5CCOCC5)CC4)nc(N4C[C@H]5CC[C@@H](C4)N5)c3C#N)C2)c2c1sc(N)c2C#N` (stereo partly drawn) [Compound 45, 2-amino-1-[5-cyano-2-[[1-(morpholinomethyl)cyclopropyl]methoxy]-6-[(1R,5S)-3,8-diazabicyclo[3.2.1]octan-3-yl]pyrimidin-4-yl]-6-methyl-spiro[5,6-dihydrocyclopenta[b]thiophene-4,3′-azetidine]-3-carbonitrile] was tested, and the IC50 ([1]; Table 4) was < 10 nM and the IC50 [2] was 1 to 10 nM.
